Experimental data published in patent US9422521B2, “Differentiation of pluripotent stem cells with a kinase inhibitor or PGI2” (ES Cell International Pte Ltd., priority 2005, dated 2016).
Entries after “also recorded” stand apart in the source; their conditions may differ.

Assays:
hES cells [1] = test: qRT-PCR of cardiac and lineage marker genes in differentiating EBs; type: cell-based, human
Method: RNA extraction: EBs at the end of the twelve day period or as indicated in the text were harvested. All EBs from 3 wells were pooled and washed once in PBS^−. Trizol (Invitrogen) was added before freezing the EBs at −80° C. to enhance cell lysis. Frozen samples were thawed and harshly mixed. Chloroform was added to the sample and incubated for 3 min at room temperature. The sample was centrifuged for 15 min at 13000 rpm at 4° C. and the aqueous phase collected. An equal volume of 70% ethanol was added before the sample was loaded onto an RNeasy mini column (Qiagen). The column was centrifuged for 15 sec at ≧8000 g. The rest of the purification steps were performed according to manufacturer's instructions. RNA was eluted in RNase-free water. 5 μg of the RNA sample were then treated with DNase (Invitrogen) in a volume of 50 μl. The mixture was incubated at room temperature for 30 min and heat inactivated for 10 min at 80° C. before cooling rapidly on ice.
Reverse transcriptase: 5 μg of total RNA was mixed with 2 μl of 3 μg/μl random primers (Invitrogen) in a final volume of 100 μl. 75 μl were reversed transcribed (BioLabs), the remaining 25 μl served as a negative control. Samples were incubated for 1 hour at 37° C. before the reaction was terminated for 5 min at 95° C.
Real-time PCR: The PCR reaction was performed on 100 ng of cDNA, with 15 μl of 2× IQ™ SYBR® Green Supermix (Biorad) in a final reaction volume of 30 μl. To minimize variations in the triplicates, a master mix was prepared containing all reaction components except cDNA. PCR was performed on an iCycler™ (Biorad), annealing at 58° C. for 30 sec, extension at 72° C. for 45 sec, 40 cycles in total. Relative expression values were obtained by normalizing CT values of the tested genes in comparison with CT values of the housekeeping gene α-Actin using the ΔΔ CT method (19). The samples were subjected to PCR amplification with human gene primers including: […]
The samples were subjected to PCR amplification with human gene primers including: […]
The samples were subjected to PCR amplification with human gene primers including MESP1 (sense primer: […]; antisense primer: […]).

hES cells [2] = test: Cell count per well after EB differentiation
Method: (§1) To more accurately determine the number of cardiomyocytes in the differentiated cell population, EBs were collected, washed in PBS^− and incubated with 0.05% Trypsin for 5 min at 37° C. Cell clumps were triturated and incubated for another 5 min at 37° C. Trypsin activity was inactivated with serum containing media and cells were collected via centrifugation at 2500 rpm for 4 min at 4° C. The cell pellet was resuspended in PBS for cell count and cytospun onto glass slides at 500 rpm for 5 min at low acceleration using 1×10^5 cells. Cells were stained immediately (see previous example) and a cell count performed.
(§2) Readouts were performed on day 13: the percentage of beating EBs was defined, the average cell number per well was counted via a cytometer after EBs dissociation with trypsin, the percentage of cardiomyocytes was divined via cytospin followed by cardiomyocyte specific anti α-Myosin Heavy Chain stain (MF20 antibody), and RNA was harvest for qRT-PCR.

hES cells [3] = test: Quantification of cardiomyocytes by Cytospin and MF20 staining; type: cell-based, human
Method: as §1, §2

hES cells [4] = test: hES differentiation as embryoid bodies (EBs) in suspension culture, scoring of beating EBs; type: cell-based, human; details: for number of EBs with beating foci: 5 μM in END2-CM, added early (during or shortly after EB formation), day 12, vs END2-CM alone
Method: This method describes hES differentiation through the formation of embryoid bodies (EB) from hES cells grown on MEF. EBs can also be generated from hES grown in feeder free systems. Formed EBs were then cultured in respective media such as SF or END2-CM. […] Enzymatically passaged hES cells grown on feeder cells were washed once with PBS^+ and treated with Collagenase IV (1 mg/ml) for 3-4 min at 37° C. The Collagenase IV solution was replaced by DMEM and the cells were mechanically dissociated with a pipette tip. Cells were then harvested using a cell scraper and the cell suspension was transferred to a 50 ml tube (Falcon). Cell clumps were collected by gravity and the supernatant was aspirated. Cells were resuspended in fresh DMEM medium aiming to uniformly disperse the cell clumps in the suspension. An equal volume of the cell suspension was then transferred to ultra low attachment plates (Costar). […] Alternatively, cells can be seeded into plates under conditions supporting cell adherence to induce differentiation of hES attached to a surface. In suspension culture, EBs were formed in ultra low attachment plates in SF medium over night. After over night incubation SF medium was replace by fresh SF medium or END2-CM respectively for further differentiation. Subsequent medium changes were performed every 3-4 days. Usually, cells were cultured over a period of 12-13 days before the visual analysis of the proportion of beating EBs under a microscope was performed followed by cell collection for additional readouts. Multiple beating areas on single EBs were not counted separately. […] Cell harvest and analysis at time points other then 12-13 days after EB formation is indicated in the respective examples and figures of this embodiment. […] An average value per well was calculated and presented. hES differentiation in suspension culture: EBs were formed in ultra low attachment plates in SF medium over night. After over night incubation SF medium was replace by fresh SF medium or END2-CM. […] Subsequent medium changes were performed every 3-4 days. Usually, cells were cultured over a period of 12-13 days. […] Medium change was performed at day 3, 6 and 9 after EB formation.

hES cells [5] = test: EB morphology, H&E staining on paraffin sections; type: cell-based, human
Method: Paraffin sections: Beating EBs were collected and fixed for 15 min in 10% formalin at room temperature. EBs were then embedded in 1.5% agarose and dehydrated through 70% to 100% ethanol with a last incubation in xylene. The agarose block was then embedded in paraffin. 5 μm thick sections were cut in ribbons, floated on a warm water bath of 45° C., mounted on slides, and left to air dry at 37° C. overnight.
For hES culture on human feeder cells, see Example 2. For Immunohistochemistry performed here, see example 3. H&E staining on Paraffin sections was performed at the BSF facility (Biopolis).

[6] = tested on: JNK and/or p42/p44 MAP kinase; details: cited from earlier work
hES cells [7] = test: hES differentiation as embryoid bodies (EBs) in suspension culture, scoring of beating EBs; type: cell-based; details: hES maintained on human feeder (HF), 12 days; END2-CM only, or SB203580 at 5 μM in END2-CM
[8] = tested on: mouse embryonic carcinoma cell line P19; details: cited from earlier work
hES cells [9] = details: Vitamin C added to the END2-hES co-culture system; cited from earlier work
[10] = 0.2 μM and 2 μM in bSF, 12 days
[11] = high concentration (20 μM) in END2-CM
[12] = inhibitor added day 6 onwards, END2-CM
[13] = Example 5, END2-CM alone, or SB203580 at 5 μM in END2-CM
[14] = END2-CM supplemented with 0.1 mM Vitamin C, day 12

## CC(=O)O [AA, Acetic Acid]
hES cells [1]; 0.5 μM in bSFS vs bSFS alone
  relative expression of α-MHC: about the same
hES cells [1]; 5 μM in bSFS vs bSFS alone
  relative expression of α-MHC: slide increase
hES cells [1]; AA at a 0.5 μM concentration in bSFS (second statement)
  fold increase in relative α-MHC expression: about 2 fold
hES cells [2]; bSFS + 0.5 μM Acetic Acid (AA)
  day 13 cell count per well of a 6-well plate: 1.18 × 10^6
hES cells [2]; bSFS + 5.0 μM AA
  day 13 cell count per well of a 6-well plate: 1.03 × 10^6
hES cells [3]; 0.5 μM or 5 μM AA in bSFS, day 13
  proportion of cardiomyocytes: slightly increased
hES cells [4]; 0.5 μM in bSFS vs bSFS alone
  percentage of beating EBs on day 13: about the same
hES cells [4]; 5 μM in bSFS vs bSFS alone
  percentage of beating EBs on day 13: slide increase

## CCCCC[C@H](O)/C=C/[C@@H]1[C@H]2C/C(=C/CCCC(=O)[O-])O[C@H]2C[C@H]1O.[Na+] [PGI2, (5Z, 9α, 11α, 13E, 15S)-6,9-Epoxy-11,15-dihydroxyprosta-5,13-dien-1-oic acid Sodium salt]
hES cells [1]; [10]
  fold higher relative expression of the cardiac marker α-MHC: 2-3 fold
hES cells [4]; [10]
  fold higher percentage of beating EBs: 3 fold
hES cells [4]; bSF with PGI2 at 0.2 μM and 2 μM
  EB beating levels and marker gene expression levels compared to END2-CM: equivalent or even higher

## Oc1ccc(-c2nc(-c3ccncc3)c(-c3ccc(F)cc3)[nH]2)cc1 [SB202190]
hES cells [4]
  number of EBs with beating foci: the same effect; also recorded: comparable cardiogenic effect

## C[S+]([O-])c1ccc(-c2nc(-c3ccc(F)cc3)c(-c3ccncc3)[nH]2)cc1 (centres unmarked) [SB203580, 4-(4-Fluorophenyl)-2-(4-methylsulfinylphenyl)-5-(4-pyridyl)1H-imidazole]
hES cells [1]; 5 μM from the start in END2-CM vs END2-CM alone
  expression of cardiac markers at day 12: increased expression
hES cells [1]; 5 μM in END2-CM
  Brachyury expression around day 4: strong upregulation
  expression of skeletal (Myf5), endoderm (Sox17) or neuroectoderm (Sox1) markers: did not induce expression
  expression of the cardiac markers Nkx2.5 and α-MHC at day 12: higher expression
hES cells [1]; 5 and 20 μM in END2-CM
  Brachyury expression: upregulated
hES cells [1]; END2-CM supplemented with 25 μM
  Sox1 expression: significantly expressed
hES cells [1]; Example 7, 5 μM in END2-CM
  α-MHC expression at day 12: increased
hES cells [1]; Example 7, 20 μM in END2-CM
  expression of precardiac mesoderm (Nkx2.5) and cardiac marker genes: reduced
hES cells [1]; SF medium, from 10 μM onwards
  Sox1 expression: upregulated
hES cells [1]; [11]
  Sox1 expression: strongly upregulated
  Sox17 expression at day 12: higher expressed
hES cells [1]; higher concentration (20 μM) in END2-CM
  Mesp1 expression: comparable to EBs grown in SF medium
hES cells [1]; highest concentration (25 μM) in END2-CM
  expression of α-MHC: barely detectable
hES cells [1]; [12]
  expression of α-MHC at day 12: no effect
hES cells [1]; low concentration (5 μM) in END2-CM
  Mesp1 expression: higher expressed
hES cells [1]; over 10 μM in END2-CM
  expression of α-MHC: declined
hES cells [5]; higher concentrations in END2-CM, 12 days
  morphology of EBs: more compact and do not form epithelial visceral endoderm
hES cells [5]; higher doses (>5 μM-25 μM), END2 CM
  appearance of neural progenitor population in EBs: morphological uniform neuroepithelial EBs with clear rosette structure formed
hES cells [5]; serum free condition + 10 μM, 12 days
  neurite-like outgrowth of attached EBs: high number of neurite-like outgrowth
[6]
  inhibition of JNK and/or p42/p44 MAP kinase: does not inhibit
hES cells [7]
  percentage of beating EBs: 60-87%
hES cells [2]; CM + 5 μM SB203580
  day 13 cell count per well of a 6-well plate: 3.63 × 10^6
hES cells [2]; Example 5, END2-CM alone, or END2-CM supplemented with 5 μM SB203580
  total cell number at day 12: 1.16×10^6 cells/well
hES cells [3]; 5 μM in END2-CM, day 13
  percentage of cardiomyocytes: slightly elevated
hES cells [3]; 5 μM in bSFS, day 13
  proportion of cardiomyocytes: almost tripled
hES cells [3]; [13]
  cardiomyocytes (MF-20 positive) in EBs at day 12: 21.7%
hES cells [4]
  number of EBs with beating foci: increased
hES cells [4]; 15 μM or more in END2-CM
  beating: declined
hES cells [4]; 20 μM in END2-CM
  formation of beating foci at day 12: almost completely suppressed
hES cells [4]; 25 μM in END2-CM
  beating: no beating detectable
hES cells [4]; END2-CM with SB203580
  size of the contracting area and beating frequency of beating foci: positive effect
hES cells [4]; [13]
  beating EBs at day 12: 78%
hES cells [4]; SF medium supplemented with 5 μM
  beating foci on EBs: beating foci were detected
hES cells [4]; added during the first 3 days of differentiation
  number of beating foci per EB at day 12: remarkable increase
hES cells [4]; hES batches less responsive to END2-CM (below 50% beating), SB203580 in END2-CM
  percentage of beating EBs: more than 60%
hES cells [4]; [12]
  number of beating foci: no effect
hES cells [4]; up to 10 μM in END2-CM, 12 days, vs non-supplemented END2-CM
  number of beating foci: increase
[8]
  cardiomyocyte differentiation in P19: prevented cardiomyocyte differentiation

## O=C1O[C@H]([C@@H](O)CO)C(O)=C1O [Vitamin C]
hES cells [1]; [14]
  expression of cardiac specific markers ANF or α-MHC: increased
hES cells [9]
  increase in the number of beating areas: up to 40%
hES cells [4]; [14]
  increase in the number of beating EBs: up to 20%
